Tested on: rat uterine decidualization
Experiment: Rat decidualization assay
Assay type: in vivo
Settings: po, read-out: ED50 in the rat decidual assay
Protocol: B. Progestational and Antiprogestational Activity in Mature Ovariectomized Rats (Rat Decidualization Assay)
This assay is used to evaluate the effect of progestins and antiprogestins on rat uterine decidualization and compare the relative potencies of various test compounds.
Test compounds are dissolved in 100% ethanol and mixed with corn oil (vehicle). Stock solutions of the test compounds in oil (Mazola™) are then prepared by heating (˜80° C.) the mixture to evaporate ethanol. Test compounds are subsequently diluted with 100% corn oil or 10% ethanol in corn oil prior to the treatment of animals. No difference in decidual response is found when these two vehicles are compared. […]
Approximately 24 hr after the third injection, decidualization is induced in one of the uterine horns of anesthetized rats by scratching the antimesometrial luminal epithelium with a blunt 21 G needle. […] Approximately 24 hr following the final treatment, rats are sacrificed by […] and bodyweight measured. […]
In agonist mode, the increase in weight of the decidualized uterine horn is calculated by D-horn/C-horn and logarithmic transformation is used to maximize normality and homogeneity of variance. […] EC50 is calculated from the transformed value. […] IC50 is calculated from the retransformed value. […]

With `Cn1c(C#N)ccc1-c1cc(F)c2c(c1)C(C)(C)C(=O)N2` [5-(7-fluoro-3,3-dimethyl-2-oxo-2,3-dihydro-1H-indol-5-yl)-1-methyl-1H-pyrrole-2-carbonitrile] the ED50 was 0.1 mg/kg.

— US7317037B2, “Progesterone receptor modulators comprising pyrrole-oxindole derivatives and uses thereof” (Wyeth, priority 2004, dated 2008)
